In patent US9376423B2, “PKC-epsilon inhibitors” (The Regents of the University of California, priority 2010, dated 2016):
Like-named read-outs stand apart in the source and are kept apart here. Each block holds one molecule with its values, some of them ahead of it.

Legend:
Format in all cases: biochemical
[1] = molecular target: T1, PKCε (Homo sapiens, UniProt Q02156); assay: FRET based LANCE Ultra kinase assay
T1 sequence (Q02156 1-737): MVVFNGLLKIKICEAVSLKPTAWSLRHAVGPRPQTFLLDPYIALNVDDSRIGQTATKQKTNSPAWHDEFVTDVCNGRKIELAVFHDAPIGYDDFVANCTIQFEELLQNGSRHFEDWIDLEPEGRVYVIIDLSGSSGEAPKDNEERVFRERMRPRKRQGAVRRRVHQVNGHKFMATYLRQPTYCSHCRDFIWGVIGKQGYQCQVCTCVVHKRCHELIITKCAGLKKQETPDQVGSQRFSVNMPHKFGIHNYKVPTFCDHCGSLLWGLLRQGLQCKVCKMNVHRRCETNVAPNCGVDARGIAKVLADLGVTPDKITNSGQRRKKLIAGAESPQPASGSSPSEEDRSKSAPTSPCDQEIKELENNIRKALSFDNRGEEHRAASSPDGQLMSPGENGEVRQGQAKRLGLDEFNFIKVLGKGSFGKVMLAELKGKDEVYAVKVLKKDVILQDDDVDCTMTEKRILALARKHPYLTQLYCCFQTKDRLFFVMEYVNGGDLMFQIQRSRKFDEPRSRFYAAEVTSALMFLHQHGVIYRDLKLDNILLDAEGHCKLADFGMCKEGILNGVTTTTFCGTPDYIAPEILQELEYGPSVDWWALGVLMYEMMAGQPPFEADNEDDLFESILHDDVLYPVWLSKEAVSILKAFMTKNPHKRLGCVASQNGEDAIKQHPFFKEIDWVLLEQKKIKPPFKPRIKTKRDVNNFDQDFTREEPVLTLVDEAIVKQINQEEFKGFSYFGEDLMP
Protocol: Certain compounds of this invention were tested in the captioned assay.

[2] = molecular target: T1, PKCε; assay: Primary PKCε phosphotransferase assay; design: FLAG; made in house; host or cells: COS-7
Protocol: The assay mixture can contain 2 ng FLAG-tagged human PKCε expressed and purified from COS-7 cells in 25 μl kinase buffer containing 20 mM Tris-HCl, pH 7.4, 0.25 mM EGTA, 0.1 mg/ml BSA, 0.72% TritonX-100, 10 mM MgCl2, 0.48 μg/μl L-α-phosphatidylserine (PS) and 0.107 μg/μl sn-1,2-dioleoylglecerol (DG) (Avanti Polar Lipids, Alabaster, Ala., USA), 2 μM K(Biotin)-[…], 2.5 μM ATP and 0.05 μCi [^32γ-P]ATP. After incubation at 27° C. for 90 min, the reaction is terminated by adding 12.5 μl of 7.5 M of guanidine hydrochloride. Eight microliters of reaction mixture is spotted onto a pre-cut streptavidin-coated SAM Biotin Capture membrane. […] The membrane is then air dried at room temperature for 60 min and radioactivity remaining on the membrane can be measured by liquid scintillation counting. Specific PKCε activity can then be calculated as the difference between cpms detected in the presence and absence of lipids (PS and DG). Maximal PKCε activity (positive control) can be detected in reactions lacking an inhibitor. Complete inhibition (negative control) can be measured in the presence of the general PKC inhibitor 5 μM bisindolylmaleimide I. The normalized percent inhibition (NPI) can be calculated at each concentration of inhibitor by the formula: […]
IC50 values can be calculated from normalized dose-response curves by nonlinear regression analysis. […]

[3] = molecular target: T2, PKCγ (Homo sapiens, UniProt P05129); assay: Inhibition of conventional PKCγ (Example 4); conditions: 10 μM inhibitor; n = 3; read-out: Percent inhibition of PKC activity, PKCγ
T2 construct: purchased Invitrogen (Carlsbad, Calif., USA)
Description: (§1) Compound selectivity for inhibiting PKCε and not other PKC isozymes or ROCK1 can be determined according to the following assay. Specificity counter screens can be performed against one member of each subclass of PKCs (conventional, novel and atypical).
(§2) For example, to measure inhibition of conventional PKCγ, novel PKCδ, and atypical PKCζ, the same kinase assay disclosed above for PKCε can be used with recombinant human PKCγ, PKCδ, or PKCζ purchased from Invitrogen (Carlsbad, Calif., USA) in place of PKCε, with 0.4 mM CaCl2 assay buffer for PKCγ.

[4] = molecular target: T1, PKCε; assay: Inhibition of PKCε (Example 4); conditions: for IC50: ± SE, read-out: Log IC50 (M) PKCε (converted)
[5] = molecular target: T3, PKCδ (Homo sapiens, UniProt Q05655); assay: Inhibition of novel PKCδ (Example 4); conditions: n = 3; for inhibition at 10 µM: 10 μM inhibitor, read-out: Percent inhibition of PKC activity, PKCδ; for IC50: ± SE, read-out: Log IC50 (M) PKCδ (converted)
T3 construct: purchased Invitrogen (Carlsbad, Calif., USA)
Description: as §1, §2

[6] = molecular target: T4, PKCθ (Homo sapiens, UniProt Q04759); assay: Inhibition of novel PKCθ (Example 4); conditions: n = 3; for inhibition at 10 µM: 10 μM inhibitor, read-out: Percent inhibition of PKC activity, PKCθ; for IC50: ± SE, read-out: Log IC50 (M) PKCθ (converted)
T4 construct: purchased Invitrogen P2996
Description: Inhibition of PKC theta activity can be measured using the same primary phosphotransferase assay for PKCε except one substitutes recombinant human PKC theta purchased from Invitrogen for PKCε. PKC theta can also be assayed with a fluorescence polarization (FP) assay using the commercially available Protein Kinase C Assay Kit, Red, from Invitrogen (Product ID No P2941), essentially in accordance with the protocol supplied by the manufacturer. The substrate used is […] (MW 1561), which can be obtained from Invitrogen (Product ID No P2760). The isozyme PKC theta can be obtained from Invitrogen (Product ID No P2996).

[7] = molecular target: T5, PKCζ (Homo sapiens, UniProt Q05513); assay: Inhibition of atypical PKCζ (Example 4); conditions: for activity against atypical PKCζ: 10 μM; for inhibition at 10 µM: 10 μM inhibitor, n = 3, read-out: Percent inhibition of PKC activity, PKCζ
T5 construct: purchased Invitrogen (Carlsbad, Calif., USA)
T5 sequence (Q05513 1-592): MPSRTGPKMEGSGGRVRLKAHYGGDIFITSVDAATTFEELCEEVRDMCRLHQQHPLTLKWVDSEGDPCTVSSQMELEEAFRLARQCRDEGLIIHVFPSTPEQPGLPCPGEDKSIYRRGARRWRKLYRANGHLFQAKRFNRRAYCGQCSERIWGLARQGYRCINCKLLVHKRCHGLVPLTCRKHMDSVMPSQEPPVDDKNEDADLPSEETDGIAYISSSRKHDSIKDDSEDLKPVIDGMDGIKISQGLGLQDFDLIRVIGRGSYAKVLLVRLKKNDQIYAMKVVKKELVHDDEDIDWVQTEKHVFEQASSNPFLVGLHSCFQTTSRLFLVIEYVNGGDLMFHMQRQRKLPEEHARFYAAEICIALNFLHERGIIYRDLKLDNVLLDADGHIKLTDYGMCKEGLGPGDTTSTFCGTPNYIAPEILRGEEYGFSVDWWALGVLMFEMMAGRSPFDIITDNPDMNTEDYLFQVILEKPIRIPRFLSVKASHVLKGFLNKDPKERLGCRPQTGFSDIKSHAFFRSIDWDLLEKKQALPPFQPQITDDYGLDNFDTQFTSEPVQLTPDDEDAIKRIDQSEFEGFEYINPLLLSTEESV
Description: as §1, §2

[8] = selection criterion for Example 4, read-out: Ki for PKCε

T4 sequence (Q04759 whole entry): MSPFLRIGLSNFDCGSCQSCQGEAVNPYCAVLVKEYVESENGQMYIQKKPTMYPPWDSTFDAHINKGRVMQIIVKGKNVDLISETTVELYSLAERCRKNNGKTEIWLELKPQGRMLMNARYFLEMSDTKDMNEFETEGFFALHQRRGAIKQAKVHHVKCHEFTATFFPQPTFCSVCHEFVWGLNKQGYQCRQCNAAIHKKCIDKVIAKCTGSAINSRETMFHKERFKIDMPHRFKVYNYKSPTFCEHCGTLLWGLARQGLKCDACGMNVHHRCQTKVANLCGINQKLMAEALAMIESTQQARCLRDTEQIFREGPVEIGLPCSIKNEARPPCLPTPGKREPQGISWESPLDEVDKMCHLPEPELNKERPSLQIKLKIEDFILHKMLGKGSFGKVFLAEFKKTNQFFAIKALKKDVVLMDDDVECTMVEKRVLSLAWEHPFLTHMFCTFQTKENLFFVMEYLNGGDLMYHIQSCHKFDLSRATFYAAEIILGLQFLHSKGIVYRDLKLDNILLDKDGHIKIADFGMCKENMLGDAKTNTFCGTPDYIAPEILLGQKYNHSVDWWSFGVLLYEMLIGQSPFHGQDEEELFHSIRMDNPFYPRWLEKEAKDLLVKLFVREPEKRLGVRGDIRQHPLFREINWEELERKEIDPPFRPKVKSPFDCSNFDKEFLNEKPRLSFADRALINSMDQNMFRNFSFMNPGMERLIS
T3 sequence (Q05655 whole entry): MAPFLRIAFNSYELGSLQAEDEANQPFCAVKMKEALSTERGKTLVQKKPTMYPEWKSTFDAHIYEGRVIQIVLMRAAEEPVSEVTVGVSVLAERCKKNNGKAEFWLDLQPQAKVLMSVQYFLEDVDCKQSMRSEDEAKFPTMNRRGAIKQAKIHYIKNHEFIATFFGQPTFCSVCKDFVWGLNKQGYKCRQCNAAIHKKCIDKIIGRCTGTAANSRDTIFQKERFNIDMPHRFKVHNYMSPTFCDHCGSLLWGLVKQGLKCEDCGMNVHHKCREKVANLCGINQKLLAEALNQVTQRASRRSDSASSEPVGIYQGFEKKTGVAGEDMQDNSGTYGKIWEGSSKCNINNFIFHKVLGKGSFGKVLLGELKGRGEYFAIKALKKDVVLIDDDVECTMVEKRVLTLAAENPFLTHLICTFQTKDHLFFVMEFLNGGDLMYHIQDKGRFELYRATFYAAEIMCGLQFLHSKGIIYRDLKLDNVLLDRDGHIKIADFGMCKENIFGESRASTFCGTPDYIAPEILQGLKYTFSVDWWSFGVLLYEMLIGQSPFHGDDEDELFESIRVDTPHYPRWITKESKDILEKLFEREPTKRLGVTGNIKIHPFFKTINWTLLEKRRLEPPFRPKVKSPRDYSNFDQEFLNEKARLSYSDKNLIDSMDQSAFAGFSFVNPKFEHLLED

Structure (SMILES): NC(CC(=O)NCC1(c2ccc(Cl)cc2)CC1)[C@H]1CC[C@H](C(=O)Nc2ccncc2)CC1 (relative stereo) [Compound 2, trans-4-[1-Amino-2-[[[1-(4-chlorophenyl)cyclopropyl]methylamino]carbonyl]ethyl]-N-4-pyridinyl-cyclohexylcarboxamide]
IC50 [1]: 3240 nM | IC50 [2]: 1690 nM

Structure (SMILES): NC(CNC(=O)C1(c2ccc(F)cc2)CC1)[C@H]1CC[C@H](C(=O)Nc2ccncc2)CC1 (stereo partly shown) [Compound 3]
IC50 ([1]; read-out: Log IC50 (converted)): 146 nM

Structure (SMILES): NC(CNC(=O)C1(c2ccc(F)cc2Cl)CCCC1)[C@H]1CC[C@H](C(=O)Nc2ccncc2)CC1 (stereo partly shown) [Compound 4]
IC50 ([1]; read-out: Log IC50 (converted)): 121 nM

Structure (SMILES): Cl.NC(CNC(=O)C1(c2ccc(F)cc2)CCCC1)[C@H]1CC[C@H](C(=O)Nc2ccncc2)CC1 (stereo partly shown) [Compound 5]
inhibition at 10 µM [3]: 17 ± 1.3% | IC50 ([1]; read-out: IC50): 42.6 nM | IC50 ([1]; read-out: Log IC50 (converted)): 42.7 nM | Ki ([4]; n = 3, read-out: Ki (nM) PKCε): 12.8 nM | Ki [4, 8]: < 20 nM | IC50 ([4]; n = 3): 4.27e-08 M | inhibition at 10 µM [5]: 96.4 ± 1% | Ki [5]: 125 nM | IC50 [5]: 5.25e-07 M | inhibition at 10 µM [6]: 94.4 ± 1% | Ki [6]: 86.9 nM | IC50 [6]: 3.63e-07 M | activity against atypical PKCζ [7]: almost no activity | inhibition at 10 µM [7]: 6.3 ± 2.1%

Structure (SMILES): NC(CNC(=O)C1(c2ccc(F)c(F)c2)CC1)[C@H]1CC[C@H](C(=O)Nc2ccncc2)CC1 (stereo partly shown) [Compound 6]
IC50 ([1]; read-out: IC50): 52.2 nM

Structure (SMILES): CC(C)(C(=O)NCC(N)[C@H]1CC[C@H](C(=O)Nc2ccncc2)CC1)c1cccs1 (stereo partly shown) [Compound 7]
IC50 ([1]; read-out: Log IC50 (converted)): 280 nM

Structure (SMILES): CC(C)(C(=O)NCC(N)[C@H]1CC[C@H](C(=O)Nc2ccncc2)CC1)c1ccc(Cl)cc1.Cl (stereo partly shown) [Compound 9]
inhibition at 10 µM [3]: 30 ± 3.3% | IC50 ([1]; read-out: Log IC50 (converted)): 40 nM | Ki ([4]; n = 3, read-out: Ki (nM) PKCε): 9.3 nM | Ki [4, 8]: < 20 nM | IC50 ([4]; n = 3): 3.8e-08 M | inhibition at 10 µM [5]: 98.9 ± 0.6% | Ki [5]: 66.5 nM | IC50 [5]: 2.69e-07 M | inhibition at 10 µM [6]: 99.6 ± 1.3% | Ki [6]: 67 nM | IC50 [6]: 2.75e-07 M | activity against atypical PKCζ [7]: almost no activity | inhibition at 10 µM [7]: 8.9 ± 1.8%

Second part, the molecule after the results:

IC50 ([1]; read-out: Log IC50 (converted)): 359 nM
Structure (SMILES): NC(CNC(=O)C1CCc2cc(Cl)ccc21)[C@H]1CC[C@H](C(=O)Nc2ccncc2)CC1 (stereo partly shown) [Compound 8]

IC50 ([1]; read-out: Log IC50 (converted)): 2020 nM
Structure (SMILES): NC(C(=O)NC1COc2ccccc21)[C@H]1CC[C@H](C(=O)Nc2ccncc2)CC1 (stereo partly shown) [Compound 10]

IC50 ([1]; read-out: Log IC50 (converted)): 3090 nM
Structure (SMILES): NC(C(=O)NC1CCCc2ccccc21)[C@H]1CC[C@H](C(=O)Nc2ccncc2)CC1 (stereo partly shown) [Compound 11]

IC50 ([1]; read-out: Log IC50 (converted)): 2370 nM
Structure (SMILES): NC(C(=O)NCc1ccc(F)cc1)[C@H]1CC[C@H](C(=O)Nc2ccncc2)CC1 (stereo partly shown) [Compound 12]
